# Patent US20230383291A1, “PEPTIDE-BASED TRANSDUCTION OF NON-ANIONIC POLYNUCLEOTIDE ANALOGS FOR GENE EXPRESSION MODULATION” (FELDAN BIO INC., priority 2020, published 2023)
# Where a SMILES comes first, the peptide text is derived from it.
# What was measured:
# Format in all cases: cell-based, Human
# HeLa cells [1] = experiment: PMO-FITC delivery in HeLa cells, immunofluorescence microscopy (vs Endoporter); details: 10 μM PMO-FITC with shuttle agent, 5-minute incubation in RPMI
# Protocol: A PMO cargo delivery experiment in HeLa cells was performed to directly compare synthetic peptide shuttle agent-mediated PMO transduction with Endoporter-mediated intracellular PMO delivery. For shuttle agent-mediated transduction, HeLa cells were exposed to 10 μM of PMO-FITC in the presence of 2.5, 5, 7.5, or 10 μM of the second-generation shuttle agent FSD396 for 5 minutes in RPMI. For Endoporter-mediated delivery, HeLa cells were exposed to 10 μM of PMO-FITC in the presence of 2.5, 5, 7.5, or 10 μM of the commercially-available Endoporter' peptide (GeneTools, LLC) in growth medium for the manufacturer's recommended minimum incubation time of at least 24 hours. After a washing step, delivery results were compared by observing intracellular PMO-FITC fluorescence via immunofluorescence microscopy and results are shown in FIG. 11.
# RH-30 cells = experiment: in vitro; details: 6 μM PMO-FITC, increasing shuttle concentrations, 2 minutes
# Protocol: (§1) Although naked DNA/RNA cargoes are shown to themselves be poor cargoes of synthetic peptide shuttle agents (Examples 3 and 9), the present Example evaluates their potential dominant negative effect in trans on shuttle agent-mediated transduction of PMO cargoes. Briefly, RH-30 cells (150,000 cells/well in 24-well dish) were contacted with a delivery mix of 6 μM of a PMO-FITC and of 5 μM of the synthetic peptide shuttle agent FSD250 for 2 minutes in RPMI, in the presence of increasing amounts of a DNA oligonucleotide or an sgRNA spiked in medium. Cells were then washed, incubated in growth medium and then collected for analysis by flow cytometry after 1 h. […] In all conditions tested, cell viability remained above 75%.
# (§2) The present Example compares the PMO transduction activity of a prototypical CPD-comprising first generation shuttle agent with that of two rationally-designed second generation synthetic peptide shuttle agents. Briefly, RH-30 cells (20,000 cells/well in 96-well dish) were contacted with a delivery mix of 6 μM of a PMO-FITC and increasing concentrations of the first-generation shuttle agent His-CM18-PTD4 or two CPD-lacking second generation synthetic peptide shuttle agents (FSD250 and FSD10) for 2 minutes in RPMI. Cells were washed, incubated in complete medium and then collected for analysis by flow cytometry after 1 h. […]
# Gli1 protein = experiment: Gli1 knock-down in DU145 cells, Western blot; details: FITC+ cells vs FITC− cells; 6 μM PMO, 5 μM FSD250, 48 hours
# Protocol: DU145 cells were trypsinized and plated (500 000 cells/well) in a 24 well-dish the day prior to the experiment. […] Cells were washed once with PBS and delivery mixes were added on cells for five minutes. Then, 2 mL of RPMI-1640 containing 10% FBS was added to the mix and removed. Untreated cells were incubated with RPMI-1640 only. Cells were incubated in fresh RPMI-1640 containing 10% FBS. Forty height hours later, medium was removed and cells were washed once with PBS prior to trypsinization. Cells were harvested, collected by centrifugation, washed, and resuspended with PBS. Then, PMO-FITC positive and PMO-FITC negative cells were sorted and collected by virtue of FACS (BD FACS Aria Fusion). FITC-positive and FITC-negative cell samples were collected by centrifugation and resuspended in 50 μL protein extraction RIPA buffer (150 mM NaCl, 1% Nonidet™ P-40, 0.1% SDS, 0.5% Sodium deoxycholate, 25 mM Tris). Total protein concentrations were measured with a BCA protein assay kit. For all conditions, 10 μg of proteins were prepared at a final volume of 40 μL with 4× Laemmeli and RIPA buffer. Protein samples were then heated at 90° C. and separated through an 8% SDS-PAGE gel. Proteins were then transferred over night (25 volts) onto a […] PVDF membrane. Membranes were blocked using a 5% bovine serum albumin, Tris Buffer Saline, 0.1% Tween® 20 solution (5% BSA/TBS-T) for an hour. After blocking, the membrane was incubated for an hour with a 5% BSA/TBS-T solution containing anti alpha-Actinin (D6F6) primary antibody at a 1:1000. Alpha-Actinin protein present in the cell lysates served as loading control. Subsequently, the membranes were incubated over night with a 5% BSA/TBS-T solution containing anti-Gli1 primary antibody diluted 1:500. The membrane was then subjected to a 1-hour incubation at 1:5000 dilution of HRP-conjugated goat anti-rabbit secondary antibody 5% BSA/TBS-T solution. Chemiluminescence detection was performed using Clarity™ Western ECL Substrate and a ChemiDoc™ XRS apparatus. Gli1 and Alpha-Actinin densitometry was assessed using ImageJ™ software. […]
# HeLa cells [2] = experiment: PMO, PNA and siRNA transduction in HeLa cells with FSD250; details: all conditions tested, FIG. 7B
# Protocol: Phosphorodiamidate morpholino oligomers labeled with the fluorophore FITC (PMO-FITC) were prepared at 1 mM in sterile water. HeLa cells were plated (20 000 cells/well) in a 96 well-dish the day prior to the experiment. Each delivery mix comprising a synthetic peptide shuttle agent (7.5, 10 or 20 μM) and a PMO-FITC (6 μM) was prepared and completed to 50 μL with RPMI-1640 media. Cells were washed once with PBS and the shuttle agent/PMO-FITC or PMO-FITC alone added on cells for five minutes. Then, 100 μL DMEM containing 10% FBS was added to the mix and removed. Cells were washed once with PBS and incubated in DMEM containing 10% FBS. Cells were analyzed after a 2-hour incubation by flow cytometry.
# HeLa cells were transduced with 10 μM of PMO-FITC or fluorescently-labeled Peptide Nucleic Acid (PNA) (PNA TelC-Alexa 488; cat. no. F1004; PNA BIO Inc.) as generally described in the transduction protocol described in Example 1 with a few modifications. The shuttle peptide used was FSD250 (5 μM) and cells were contacted with the cargo and shuttle agent for two minutes, and cells were analyzed after a 1-hour incubation by flow cytometry.
# in vitro = details: human, RH-30 cells
# Protocol: as §1, §2
# HeLa cells [3] = experiment: Propidium iodide (PI) transduction screening in HeLa cells; details: negative control peptide tested in parallel; data not shown
# Protocol: HeLa cells were plated (20 000 cells/well) in a 96 well-dish the day prior to the experiment. Each delivery mix comprising a synthetic peptide shuttle agent (10 μM) and the propidium iodide (PI) (10 μg/mL) or the GFP-NLS (10 μM) were prepared and completed to 50 μL with phosphate-buffered saline (PBS) for PI or with RPMI-1640 medium for GFP-NLS. Cells were washed once and the shuttle agent/PI or shuttle agent/GFP-NLS added on cells for one minute (PI) or 5 minutes (GFP-NLS). Then 100 μL DMEM containing 10% FBS was added to the mix and removed. Cells were washed once with PBS and incubated in DMEM containing 10% FBS. Cells were analyzed after 2-hour incubation by flow cytometry. Cells were analyzed […]. […]
# Due to the large number of peptides screened, negative controls were performed in parallel for each experimental batch and included a “no treatment” (NT) control in which the cells were not exposed to shuttle peptide or cargo, as well as a “cargo alone” control in which cells were exposed to the cargo in the absence of shuttle agent. […] Mean PI or GFP-NLS delivery score was calculated by multiplying the mean fluorescence intensity (of at least duplicate samples) measured for the viable PI+ or GFP+ cells by the mean percentage of viable PI+ or GFP+ cells, divided by 100,000 for GFP delivery or by 10,000 for PI delivery. […]
molecule,measurement,setting,value
FSD396: second-generation shuttle agent (KLKLAKLLLKALKKLGGSGGGSQAKAQAKQAK; FSD396),intracellular delivery of PMO-FITC,HeLa cells [1],robust intracellular delivery
FSD10: CPD-lacking second generation synthetic peptide shuttle agent (KWKLARAFARAIKKLGGSGGGSYARALRRQARTG; FSD10),PMO-FITC transduction efficiency compared to His-CM18-PTD4,RH-30 cells,higher transduction efficiencies
PMO-Wnt1: antisense PMO molecule designed to knock-down expression of the Wnt1 protein (antisense GCAACAGCGCCCAGAGCCCCATG; all phosphorodiamidate morpholino (PMO)),Gli1 protein expression,Gli1 protein,knocked-down
CC(C)C[C@H](NC(=O)[C@H](CCCCN)NC(=O)[C@H](CC(C)C)NC(=O)[C@H](CC(C)C)NC(=O)[C@H](CCCNC(=N)N)NC(=O)[C@H](CO)NC(=O)[C@H](Cc1c[nH]c2ccccc12)NC(=O)[C@H](CC(C)C)NC(=O)[C@H](CCCCN)NC(=O)[C@H](CC(C)C)NC(=O)[C@H](CC(C)C)NC(=O)[C@H](CCCCN)NC(=O)[C@H](Cc1c[nH]c2ccccc12)NC(=O)[C@@H](N)CCCCN)C(=O)N[C@@H](Cc1c[nH]c2ccccc12)C(=O)NCC(=O)NCC(=O)N[C@@H](CO)C(=O)NCC(=O)NCC(=O)NCC(=O)N[C@@H](CO)C(=O)N[C@@H](C)C(=O)N[C@@H](CCCNC(=N)N)C(=O)N[C@@H](C)C(=O)N[C@@H](C)C(=O)N[C@@H](CCCNC(=N)N)C(=O)N[C@@H](CCC(N)=O)C(=O)N[C@@H](C)C(=O)N[C@@H](CCCNC(=N)N)C(=O)O [FSD250] (H-KWKLLKLWSRLLKLWGGSGGGSARAARQAR-OH),Cell viability,HeLa cells [2],remained high
same,"viability at 2 min, 5 µM",in vitro,> 75%
FSD174 Scramble: negative control peptide known to have low or no GFP transduction activity (LGRSGRIKIGGWSALASRARQARGLKIWTQGRL; FSD174 Scramble),PI transduction efficiency compared to cargo alone,HeLa cells [3],lower transduction efficiencies for PI
